Here are results for 5 molecules from patent US12329788B2, “Synbiotic compositions” (Evonik Operations GmbH, priority 2018, dated 2025).

Where a SMILES comes first, the peptide text is derived from it.

For one test, the system named is human gut microbiota. The test can be described thus: lactate and short-chain fatty acid production in i-screen with human gut microbiota. Type of test: cell-based. Conditions: 24 h, amino acids 3.5 mM, dipeptides 7 mM. The text has this: (§1) To determine the effect of the probiotic strains Bacillus subtilis DSM 32315, Bacillus subtilis DSM 32540, Bacillus licheniformis DSM 32314 and Bacillus amyloliquefaciens CECT 5940 on adult colonic microbiota, an intestinal screening model was used (i-screen, TNO, the Netherlands). Therefore the i-screen model was inoculated with standard human adult fecal microbiota material, which consisted of pooled fecal donations from 6 healthy adult volunteers (Caucasian, European lifestyle and nutrition). The fecal material was mixed and grown in a fed-batch fermenter for 40 hours to create a standardized microbiota as described previously. These standard adult gut microbiota sets were stored at −80° C. in 12% glycerol.
(§2) The intestinal microbiota was cultured in vitro in modified standard ileal efflux medium (SIEM), the composition of which was described by and modified as follows: 0.047 g/l pectin, 0.047 g/l xylan, 0.047 g/l arabinogalactan, 0.047 g/l amylopectin, 0.392 g/l starch, 24.0 g/l casein, 24.0 Bacto pepton, 0.4 ox-bile and 0.2 g/l cysteine. All components were supplied by Trititium Microbiology (Veldhoven, The Netherlands). The pH of the medium was adjusted to 5.8.
(§3) For the i-screen fermentations, the precultured standardized fecal inoculum was diluted 50 times in 1350 μl modified SIEM. All experiments have been carried out in triplicates. The strains Bacillus subtilis (DSM 32315), Bacillus subtilis DSM 32540, Bacillus licheniformis DSM 32314 and Bacillus amyloliquefaciens CECT 5940 were precultured separately in 50 ml LBKelly medium, for about 16 h. Incubation was done in shaking flasks at 37° C. under aerobic conditions. After incubation, bacterial density was determined by optical density measurement at 600 nm. A final stock solution of 1×10^10 cells/ml was prepared in 1 ml buffer solution (0.1 mM MES pH 6). The suspension of each strain was introduced into the i-screen to a final level of about 10^9 cells/ml, respectively
(§4) The i-screen incubation was performed under following gas conditions: 0.2% O2, 0.2% CO2, 10% H2, 89.6% N2.
The effect of the combination of different probiotic strains together with glutamine, or glutamine- or glutamic acid-containing dipeptides containing peptides on the n-butyrate production of the microbial community was analyzed for the strain B. subtilis (DSM 32315) as described in example 1 and 5. The single amino acids were added to a concentration of 3.5 mM and the dipeptides to a concentration of 7 mM.
The effects of the combination of different probiotic strains together with glutamine, or glutamine- or glutamic acid-containing dipeptides containing peptides on the n-butyrate production of the microbial community were analyzed for the strains B. licheniformis (DSM 32314) and B. amyloliquefaciens (CECT 5940) as described in example 1, 5, and 10. The single amino acids were added to a concentration of 3.5 mM and the dipeptides to a concentration of 7 mM.

The test system of a further test is Clostridium XIVa cluster. Nature of the test: i-screen microbiota composition by 16S rRNA V4 sequencing, Clostridium XIVa. It counts as cell-based, human. Conditions: 24 h SIEM, amino acids 3.5 mM, dipeptides 7 mM.
Excerpt: as §1, §2, §3, §4
(§5) DNA extraction for the sequencing of 16S rRNA coding genes was performed as described by Ladirat et al. (2013) with some minor modifications. Approximately 100 μl of the culture materials were added to the wells of a 96 well plate containing per well 300 μl of lysis buffer (Mag Mini DNA Isolation Kit, LGC ltd, UK), 500 μl zirconium beads (0.1 mm; BioSpec products, Bartlesville, OK, USA) and 500 μl of phenol saturated with Tris-HCI (pH 8.0; Carl Roth GMBH, Germany). The 96 well plate was placed in a Mini-BeadBeater-96 (BioSpec products, Bartlesville, Okla, USA) for 2 min at 2100 oscillations/min. DNA was subsequently purified using the Agowa Mag Mini DNA Isolation Kit according to the manufacturer recommendations. Extracted DNA was eluted in a final volume of 60 μl buffer.
(§6) The microbiota composition was analyzed by 16S rRNA gene amplicon sequencing of the V4 Hypervariable Region. This was Achieved Through a Series of Steps:
(§7) Subsequently, PCR amplicons of the V4 hypervariable region of the 16S rRNA gene were generated for the individual samples by amplification of […] of DNA as described by (2013), using F515/R806 primers. Primers included Illumina adapters and a unique 8-nt sample index sequence key. A mock control was included for technical quality control. The amount of amplified DNA per sample was quantified using the dsDNA 910 Reagent Kit on the Fragment Analyzer (Advanced Analytical). The amplicon libraries were pooled in equimolar amounts and purified from 1,2% agarose gel using the Gel Extraction Kit (Qiagen). The Library was quantified using the Quant-iT™ PicoGreen® dsDNA Assay Kit (Thermo Fisher Scientific). Paired-end sequencing of amplicons was conducted on the Illumina MiSeq platform (Illumina, Eindhoven, The Netherlands).
(§8) The sequence data was processed with Mothur v.1.36.1 [26] in line with the mothur MiSeq SOP [24].

The next test has as its system Clostridium XI cluster. The test can be described thus: i-screen microbiota composition by 16S rRNA V4 sequencing, Clostridium XI. It counts as cell-based, human. Conditions: for effect on Clostridia XI group: Example 8, dipeptides 7 mM, 0% O2; for Clostridium_XI relative abundance: 24 h SIEM, amino acids 3.5 mM, dipeptides 7 mM.
Excerpt: as §1, §2
as §3, with “The suspension of each strain was introduced into the i-screen to a final level of about 10^9 cells/ml, respectively” left out
as §5, §6, §7, §8

The mark [1] stands for this setting: in combination with B. licheniformis (DSM 32314).
[2] abbreviates: in combination with B. subtilis (DSM 32315).
Where [3] appears, read: microbiota + CECT 5940 (first group so headed, r13-r15).
Setting [4] is: microbiota + CECT 5940 (second group so headed, r16-r18).

In the case of `NCC(=O)O.N[C@@H](CCC(=O)O)C(=O)O` [Gly-Glu, Glycine-Glutamic acid], the “synergy on n-butyrate concentration” value in the test with human gut microbiota (setting [1]) and with human gut microbiota (setting [2]) was “Synergistic positive effects” throughout. The Clostridium_XIVa relative abundance with Clostridium XIVa cluster (setting [3]) came out at 9%; in the test on Clostridium XIVa cluster (setting [4]) it was 10%; in the test with Clostridium XIVa cluster (microbiota + DSM 32315) it was 8%; with Clostridium XIVa cluster (microbiota, no probiotic cells) it was 4%. Also, the “effect on Clostridia XI group” value in the test with Clostridium XI cluster is “reduced the Clostridia XI group almost completely”. In addition, the Clostridium_XI relative abundance in the test on Clostridium XI cluster (setting [3]) is given as 0%; in the test with Clostridium XI cluster (setting [4]), 0%; in the test with Clostridium XI cluster (microbiota + DSM 32315), 0%; in the test with Clostridium XI cluster (microbiota, no probiotic cells) it was 0%.
On to `CC(=O)N[C@@H](C)C(=O)N[C@@H](CCC(N)=O)C(=O)O` [Ac-Ala-Gln] (Ac-Ala-Gln-OH), for which the Clostridium_XIVa relative abundance in the test on Clostridium XIVa cluster (setting [3]) turned out to be 1%; with Clostridium XIVa cluster (setting [4]), 4%; with Clostridium XIVa cluster (microbiota + DSM 32315), 2%; in the test with Clostridium XIVa cluster (microbiota, no probiotic cells), 1%. For the same molecule, the Clostridium_XI relative abundance in the test with Clostridium XI cluster (setting [3]) was 21%; with Clostridium XI cluster (setting [4]), 20%; with Clostridium XI cluster (microbiota + DSM 32315), 31%; with Clostridium XI cluster (microbiota, no probiotic cells), 27%.
For `C[C@H](N)C(=O)N[C@@H](CCC(N)=O)C(=O)O` [Ala-Gln, Alanine-Glutamine] (H-Ala-Gln-OH), the “synergy on n-butyrate concentration” value in the test with human gut microbiota (setting [1]) and with human gut microbiota (setting [2]) was “Synergistic positive effects” in each case. Besides, the Clostridium_XIVa relative abundance in the test on Clostridium XIVa cluster (setting [3]) stood at 10%; with Clostridium XIVa cluster (setting [4]), 6%; in the test on Clostridium XIVa cluster (microbiota + DSM 32315) it was 4%; in the test on Clostridium XIVa cluster (microbiota, no probiotic cells) it was 2%. The “effect on Clostridia XI group” value in the test on Clostridium XI cluster is on record as “reduced the Clostridia XI group almost completely”. For the same molecule, the Clostridium_XI relative abundance in the test on Clostridium XI cluster (setting [3]) is 0%; in the test with Clostridium XI cluster (setting [4]), 0%; in the test with Clostridium XI cluster (microbiota + DSM 32315) it was 0%; in the test with Clostridium XI cluster (microbiota, no probiotic cells), 0%.
With `N[C@@H](CCC(=O)O)C(=O)O` [Glu, glutamic acid, reference compound], the “synergy on n-butyrate concentration” value in the test with human gut microbiota (setting [2]) was “Synergistic positive effects”. For the same molecule, the Clostridium_XIVa relative abundance is recorded as 1% with Clostridium XIVa cluster (setting [3]); 1% in the test on Clostridium XIVa cluster (setting [4]); 3% in the test on Clostridium XIVa cluster (microbiota + DSM 32315); 1% in the test on Clostridium XIVa cluster (microbiota, no probiotic cells). In addition, the Clostridium_XI relative abundance with Clostridium XI cluster (setting [3]) came to 26%; in the test with Clostridium XI cluster (setting [4]), 18%; in the test on Clostridium XI cluster (microbiota + DSM 32315), 25%; with Clostridium XI cluster (microbiota, no probiotic cells) it was 27%.
Regarding `NC(=O)CC[C@H](N)C(=O)O` [Gln, glutamine, reference compound], the “synergy on n-butyrate concentration” value in the test on human gut microbiota (in combination with B. amyloliquefaciens (CECT 5940)) and in the test on human gut microbiota (setting [2]) was “Synergistic positive effects” each time. The Clostridium_XIVa relative abundance turned out to be 1% with Clostridium XIVa cluster (setting [3]); 9% with Clostridium XIVa cluster (setting [4]); 2% with Clostridium XIVa cluster (microbiota + DSM 32315); 1% with Clostridium XIVa cluster (microbiota, no probiotic cells). The Clostridium_XI relative abundance was 20% in the test with Clostridium XI cluster (setting [3]); 21% in the test on Clostridium XI cluster (setting [4]); 24% in the test with Clostridium XI cluster (microbiota + DSM 32315); 28% in the test with Clostridium XI cluster (microbiota, no probiotic cells).
